Counter-ions that a name gives are not always drawn.
Key:
[1] = target: Rat recombinant PDE10a (rPDE10a) (Rattus norvegicus (Rat), UniProt Q9QYJ6); test: In vitro assay PDE10a: rat recombinant PDE10a SPA with 3H-cAMP substrate, IC50; type: biochemical; details: 60 nM cAMP, read-out: rPDE10a2 IC50
Summary of the method: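 Enzyme expressed in Sf9 cells via baculovirus and Ni-sepharose purified; reaction with 3H-cAMP ran 60 min at rt, stopped with PDE SPA beads. Compounds diluted in DMSO at 100-fold final concentration; blanks omitted enzyme.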

[2] = target: Human recombinant PDE10A2 (Homo sapiens (Human), UniProt Q9Y233); test: In vitro hPDE10a: human recombinant PDE10A2 scintillation proximity assay, IC50; type: biochemical; details: human recombinant PDE10A2, SPA, 60 nM cAMP; read-out: hPDE10a2 IC50
Human recombinant PDE10A2, sequence (Q9Y233 267-1055): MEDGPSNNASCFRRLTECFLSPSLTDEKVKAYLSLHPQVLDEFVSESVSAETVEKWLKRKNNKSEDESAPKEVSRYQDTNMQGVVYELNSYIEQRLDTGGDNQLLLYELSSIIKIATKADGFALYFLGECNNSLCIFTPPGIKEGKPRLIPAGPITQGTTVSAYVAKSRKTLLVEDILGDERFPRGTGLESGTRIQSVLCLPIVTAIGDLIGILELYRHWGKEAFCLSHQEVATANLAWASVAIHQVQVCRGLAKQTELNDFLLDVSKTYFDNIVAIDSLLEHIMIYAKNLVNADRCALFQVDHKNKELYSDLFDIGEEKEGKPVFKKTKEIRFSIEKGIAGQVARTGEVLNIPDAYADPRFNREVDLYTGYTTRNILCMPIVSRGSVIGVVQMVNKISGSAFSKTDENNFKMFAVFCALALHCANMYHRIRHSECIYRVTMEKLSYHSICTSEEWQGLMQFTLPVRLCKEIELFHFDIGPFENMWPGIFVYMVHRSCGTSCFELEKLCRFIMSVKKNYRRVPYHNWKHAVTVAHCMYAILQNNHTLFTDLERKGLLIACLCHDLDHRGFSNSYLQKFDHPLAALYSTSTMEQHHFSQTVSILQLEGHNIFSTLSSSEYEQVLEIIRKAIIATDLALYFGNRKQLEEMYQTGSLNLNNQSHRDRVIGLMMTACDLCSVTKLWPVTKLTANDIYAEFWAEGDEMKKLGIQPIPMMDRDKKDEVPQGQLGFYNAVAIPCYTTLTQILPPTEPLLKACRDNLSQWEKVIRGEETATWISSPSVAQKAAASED
Summary of the method: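 Purified recombinant human PDE10A2 (Ni-sepharose) was assayed by SPA, counting [3H]-AMP product captured on yttrium silicate beads added in zinc sulphate stop solution. Inhibition was expressed as % of activity without compound, with a no-enzyme low control. Repeat data points were aggregated.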

Rat recombinant PDE10a (rPDE10a), sequence (Q9QYJ6 whole entry): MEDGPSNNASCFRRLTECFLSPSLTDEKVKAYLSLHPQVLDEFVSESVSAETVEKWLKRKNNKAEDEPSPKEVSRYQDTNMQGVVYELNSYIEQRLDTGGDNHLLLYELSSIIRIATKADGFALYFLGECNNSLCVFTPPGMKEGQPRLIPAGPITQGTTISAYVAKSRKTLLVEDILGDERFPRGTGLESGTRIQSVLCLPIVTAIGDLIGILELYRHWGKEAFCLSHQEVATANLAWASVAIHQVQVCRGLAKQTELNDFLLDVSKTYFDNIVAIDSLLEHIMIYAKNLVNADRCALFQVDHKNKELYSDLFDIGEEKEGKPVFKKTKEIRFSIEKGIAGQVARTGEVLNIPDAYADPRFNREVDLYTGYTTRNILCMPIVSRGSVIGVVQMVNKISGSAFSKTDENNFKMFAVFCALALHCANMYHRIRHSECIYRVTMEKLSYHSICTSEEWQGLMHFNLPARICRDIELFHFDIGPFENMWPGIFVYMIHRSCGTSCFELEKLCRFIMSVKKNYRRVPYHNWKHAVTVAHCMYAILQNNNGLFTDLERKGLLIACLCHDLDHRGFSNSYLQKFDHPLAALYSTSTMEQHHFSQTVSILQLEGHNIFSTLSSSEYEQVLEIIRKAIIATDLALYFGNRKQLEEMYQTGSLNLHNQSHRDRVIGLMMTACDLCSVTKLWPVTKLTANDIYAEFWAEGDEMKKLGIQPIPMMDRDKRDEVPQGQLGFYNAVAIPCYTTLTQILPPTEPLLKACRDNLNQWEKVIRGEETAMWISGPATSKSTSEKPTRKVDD

IC50 [1] [nM]	IC50 [2] [nM]	Structure (SMILES)
< 1	< 1	O=C(O)c1ccc(-c2c(CCc3ccc4ccccc4n3)nc3c(N4CCOCC4)ccnn23)o1 [compound 60, 5-(8-Morpholino-2-(2-(quinolin-2-yl)ethyl)imidazo[1,2-b]pyridazin-3-yl)furan-2-carboxylic acid]
7	5	O=c1[nH]c(-c2ccc(-c3c(COc4ccc5ccccc5n4)nc4c(N5CCOCC5)ccnn34)cn2)no1 [Cpd 35, 3-(5-(8-Morpholino-2-((quinolin-2-yloxy)methyl)imidazo[1,2-b]pyridazin-3-yl)pyridin-2-yl)-1,2,4-oxadiazol-5(4H)-one]
4	6	CS(=O)(=O)NC(=O)Nc1ccc(-c2c(CCc3ccc4ccccc4n3)nc3c(N4CCOCC4)ccnn23)cc1 [Cpd 51, N-({4-[8-Morpholin-4-yl-2-(2-quinolin-2-ylethyl)imidazo[1,2-b]pyridazin-3-yl]phenyl}carbamoyl)methanesulfonamide]
7	4	O=c1ncn(-c2ccc(-c3c(/C=C/c4ccc5ccccc5n4)nc4c(N5CCOCC5)ccnn34)cn2)[nH]1 [Cpd 56, (E)-1-(5-(8-Morpholino-2-(2-(quinolin-2-yl)vinyl)imidazo[1,2-b]pyridazin-3-yl)pyridin-2-yl)-1,2-dihydro-1,2,4-triazol-3-one trifluoroacetic acid salt]
6	6	Oc1ccc(-c2c(/C=C/c3ccc4ccccc4n3)nc3c(N4CCOCC4)ccnn23)cn1 [Cpd 16, (E)-5-(8-Morpholino-2-(2-(quinolin-2-yl)vinyl)imidazo[1,2-b]pyridazin-3-yl)pyridin-2-ol]
3	2	C(=C\c1nc2c(N3CCOCC3)ccnn2c1-c1ccc(-c2nnn[nH]2)nc1)/c1ccc2ccccc2n1 [Cpd 19, 2-[(E)-2-{8-Morpholin-4-yl-3-[6-(1H-tetrazol-5-yl)pyridin-3-yl]imidazo[1,2-b]pyridazin-2-yl}ethenyl]quinoline]
< 1	1	O=c1[nH]c(-c2ccc(-c3c(CCc4ccc5ccccc5n4)nc4c(N5CCOCC5)ccnn34)cn2)no1 [Cpd 37, 3-(5-(8-Morpholino-2-(2-(quinolin-2-yl)ethyl)imidazo[1,2-b]pyridazin-3-yl)pyridin-2-yl)-1,2,4-oxadiazol-5(4H)-one]

Second part, the compound before the results:

Structure (SMILES)	IC50 [1] [nM]	IC50 [2] [nM]
O=C(O)c1ccc(-c2c(CCc3ccc4c(n3)CCCC4)nc3c(N4CCOCC4)ccnn23)cc1 [Cpd 79, 4-(8-Morpholino-2-(2-(5,6,7,8-tetrahydroquinolin-2-yl)ethyl)imidazo[1,2-b]pyridazin-3-yl)benzoic acid trifluoroacetic acid salt]	8	3
O=C(O)c1ccc(-c2c(/C=C/c3ccc4ccccc4n3)nc3c(N4CCOCC4)ccnn23)cc1O [compound 63, (E)-2-Hydroxy-4-(8-morpholino-2-(2-(quinolin-2-yl)vinyl)imidazo[1,2-b]pyridazin-3-yl)benzoic acid]	3	3
O=C(O)c1ccc(Nc2c(/C=C/c3ccc4ccccc4n3)nc3c(N4CCOCC4)ccnn23)cc1 [Cpd 138, (E)-4-((8-Morpholino-2-(2-(quinolin-2-yl)vinyl)imidazo[1,2-b]pyridazin-3-yl)amino)benzoic acid]	2	5
O=C(O)c1ccc(-c2c(C#Cc3cccc(C(F)(F)F)n3)nc3c(N4CCOCC4)ccnn23)cc1 [Cpd 111, 4-(8-Morpholino-2-((6-(trifluoromethyl)pyridin-2-yl)ethynyl)imidazo[1,2-b]pyridazin-3-yl)benzoic acid]	17	~18
O=C(O)C1CCC(Nc2c(/C=C/c3ccc4ccccc4n3)nc3c(N4CCOCC4)ccnn23)CC1 (stereo not drawn) [Cpd 152, (E)-4-((8-Morpholino-2-(2-(quinolin-2-yl)vinyl)imidazo[1,2-b]pyridazin-3-yl)amino)cyclohexanecarboxylic acid]	15	7
